Measurements as given in ChEMBL document CHEMBL3817755, “Design, synthesis and biological evaluation of indazolepyrimidine based derivatives as anticancer agents with anti-angiogenic and antiproliferative activities” (Medchemcomm, 2016).

Experiments:
Assay type in all cases: functional
[1] = test system: CCRF-CEM; assay: Growth inhibition of human CCRF-CEM cells at 10 uM after 48 hrs by SRB assay; conditions: read-out: GI
[2] = Growth inhibition of human MOLT4 cells at 10 uM after 48 hrs by SRB assay; conditions: MOLT-4, 48 h, read-out: GI
[3] = Growth inhibition of human RPMI8226 cells at 10 uM after 48 hrs by SRB assay; conditions: RPMI-8226, 48 h, read-out: GI
[4] = test system: SR; assay: Growth inhibition of human SR cells at 10 uM after 48 hrs by SRB assay; conditions: read-out: GI
[5] = test system: A549; assay: Growth inhibition of human A549/ATCC cells at 10 uM after 48 hrs by SRB assay; conditions: A549, 48 h, read-out: GI
[6] = Growth inhibition of human HOP62 cells at 10 uM after 48 hrs by SRB assay; conditions: HOP-62, 48 h, read-out: GI
[7] = test system: NCI-H226; assay: Growth inhibition of human NCI-H226 cells at 10 uM after 48 hrs by SRB assay; conditions: NCI-H226, 48 h, read-out: GI
[8] = test system: NCI-H322M; assay: Growth inhibition of human NCI-H322M cells at 10 uM after 48 hrs by SRB assay; conditions: read-out: GI
[9] = Growth inhibition of human COLO205 cells at 10 uM after 48 hrs by SRB assay; conditions: COLO 205, 48 h, read-out: GI
[10] = Growth inhibition of human HCC2998 cells at 10 uM after 48 hrs by SRB assay; conditions: HCC 2998, 48 h, read-out: GI
[11] = Growth inhibition of human HCT116 cells at 10 uM after 48 hrs by SRB assay; conditions: HCT-116, 48 h, read-out: GI
[12] = Growth inhibition of human HCT15 cells at 10 uM after 48 hrs by SRB assay; conditions: HCT-15, 48 h, read-out: GI
[13] = test system: HT-29; assay: Growth inhibition of human HT-29 cells at 10 uM after 48 hrs by SRB assay; conditions: HT-29, 48 h, read-out: GI
[14] = test system: KM12; assay: Growth inhibition of human KM12 cells at 10 uM after 48 hrs by SRB assay; conditions: KM12, 48 h, read-out: GI
[15] = Growth inhibition of human SF295 cells at 10 uM after 48 hrs by SRB assay; conditions: SF-295, 48 h, read-out: GI
[16] = Growth inhibition of human SF539 cells at 10 uM after 48 hrs by SRB assay; conditions: SF-539, 48 h, read-out: GI
[17] = Growth inhibition of human SNB75 cells at 10 uM after 48 hrs by SRB assay; conditions: SNB-75, 48 h, read-out: GI
[18] = Growth inhibition of human LOXIMVI cells at 10 uM after 48 hrs by SRB assay; conditions: LOX IMVI, read-out: GI
[19] = test system: Malme-3M; assay: Growth inhibition of human MALME-3M cells at 10 uM after 48 hrs by SRB assay; conditions: read-out: GI
[20] = test system: M14; assay: Growth inhibition of human M14 cells at 10 uM after 48 hrs by SRB assay; conditions: M14, 48 h, read-out: GI
[21] = test system: SK-MEL-28; assay: Growth inhibition of human SK-MEL-28 cells at 10 uM after 48 hrs by SRB assay; conditions: SK-MEL-28, 48 h, read-out: GI
[22] = test system: SK-MEL-5; assay: Growth inhibition of human SK-MEL-5 cells at 10 uM after 48 hrs by SRB assay; conditions: SK-MEL-5, 48 h, read-out: GI
[23] = Growth inhibition of human UACC257 cells at 10 uM after 48 hrs by SRB assay; conditions: UACC-257, 48 h, read-out: GI
[24] = Growth inhibition of human UACC62 cells at 10 uM after 48 hrs by SRB assay; conditions: UACC-62, 48 h, read-out: GI
[25] = Growth inhibition of human IGROV1 cells at 10 uM after 48 hrs by SRB assay; conditions: IGROV-1, 48 h, read-out: GI
[26] = Growth inhibition of human OVCAR5 cells at 10 uM after 48 hrs by SRB assay; conditions: OVCAR-5, 48 h, read-out: GI
[27] = Growth inhibition of human OVCAR8 cells at 10 uM after 48 hrs by SRB assay; conditions: OVCAR-8, 48 h, read-out: GI
[28] = Growth inhibition of human NCI-ADR-RES cells at 10 uM after 48 hrs by SRB assay; conditions: read-out: GI
[29] = Growth inhibition of human SKOV3 cells at 10 uM after 48 hrs by SRB assay; conditions: SK-OV-3, 48 h, read-out: GI
[30] = test system: 786-0; assay: Growth inhibition of human 786-0 cells at 10 uM after 48 hrs by SRB assay; conditions: 786-0, 48 h, read-out: GI
[31] = test system: A498; assay: Growth inhibition of human A498 cells at 10 uM after 48 hrs by SRB assay; conditions: A498, 48 h, read-out: GI
[32] = test system: ACHN; assay: Growth inhibition of human ACHN cells at 10 uM after 48 hrs by SRB assay; conditions: read-out: GI
[33] = Growth inhibition of human Caki1 cells at 10 uM after 48 hrs by SRB assay; conditions: CAKI-1, 48 h, read-out: GI
[34] = Growth inhibition of human RXF393 cells at 10 uM after 48 hrs by SRB assay; conditions: RXF 393, 48 h, read-out: GI
[35] = test system: SN12C; assay: Growth inhibition of human SN12C cells at 10 uM after 48 hrs by SRB assay; conditions: read-out: GI
[36] = Growth inhibition of human TK10 cells at 10 uM after 48 hrs by SRB assay; conditions: TK-10, 48 h, read-out: GI
[37] = Growth inhibition of human UO31 cells at 10 uM after 48 hrs by SRB assay; conditions: UO-31, 48 h, read-out: GI
[38] = Growth inhibition of human PC3 cells at 10 uM after 48 hrs by SRB assay; conditions: PC-3, 48 h, read-out: GI
[39] = Growth inhibition of human DU145 cells at 10 uM after 48 hrs by SRB assay; conditions: DU-145, 48 h, read-out: GI
[40] = test system: MCF7; assay: Growth inhibition of human MCF7 cells at 10 uM after 48 hrs by SRB assay; conditions: MCF7, 48 h, read-out: GI
[41] = test system: MDA-MB-231; assay: Growth inhibition of human MDA-MB-231 cells at 10 uM after 48 hrs by SRB assay; conditions: MDA-MB-231, 48 h, read-out: GI
[42] = Growth inhibition of human Hs 578T cells at 10 uM after 48 hrs by SRB assay; conditions: read-out: GI
[43] = Growth inhibition of human BT549 cells at 10 uM after 48 hrs by SRB assay; conditions: BT-549, 48 h, read-out: GI

NS(=O)(=O)c1ccc(Nc2nccc(Nc3ccc4[nH]ncc4c3)n2)cc1
inhibition of growth at 10 µM [1]: 28%
inhibition of growth at 10 µM [2]: 12%
inhibition of growth at 10 µM [3]: 16%
inhibition of growth at 10 µM [4]: 34%
inhibition of growth at 10 µM [5]: 11%
inhibition of growth at 10 µM [6]: 17%
inhibition of growth at 10 µM [7]: 28%
inhibition of growth at 10 µM [8]: -5%
inhibition of growth at 10 µM [9]: -4%
inhibition of growth at 10 µM [10]: -18%
inhibition of growth at 10 µM [11]: 5%
inhibition of growth at 10 µM [12]: -6%
inhibition of growth at 10 µM [13]: 9%
inhibition of growth at 10 µM [14]: 22%
inhibition of growth at 10 µM [15]: 2%
inhibition of growth at 10 µM [16]: -3%
inhibition of growth at 10 µM [17]: 22%
inhibition of growth at 10 µM [18]: 14%
inhibition of growth at 10 µM [19]: -3%
inhibition of growth at 10 µM [20]: 5%
inhibition of growth at 10 µM [21]: -18%
inhibition of growth at 10 µM [22]: 11%
inhibition of growth at 10 µM [23]: 14%
inhibition of growth at 10 µM [24]: 11%
inhibition of growth at 10 µM [25]: -3%
inhibition of growth at 10 µM [26]: -10%
inhibition of growth at 10 µM [27]: 18%
inhibition of growth at 10 µM [28]: -6%
inhibition of growth at 10 µM [29]: -4%
inhibition of growth at 10 µM [30]: -1%
inhibition of growth at 10 µM [31]: 32%
inhibition of growth at 10 µM [32]: -7%
inhibition of growth at 10 µM [33]: -4%
inhibition of growth at 10 µM [34]: 11%
inhibition of growth at 10 µM [35]: 10%
inhibition of growth at 10 µM [36]: -16%
inhibition of growth at 10 µM [37]: 18%
inhibition of growth at 10 µM [38]: 25%
inhibition of growth at 10 µM [39]: -6%
inhibition of growth at 10 µM [40]: 40%
inhibition of growth at 10 µM [41]: 14%
inhibition of growth at 10 µM [42]: 17%
inhibition of growth at 10 µM [43]: -6%
